Earlier results on one compound are cited in patent US20090143362A1, “CARBAMAZEPINE FORMULATIONS” (priority 2007, published 2009).

Molecules are shown by their SMILES.

For data set [1] the following is noted: blood level.
For data set [2] the following is noted: in presence of water, after 1 hour, X-ray powder diffraction.

For `NC(=O)N1c2ccccc2C=Cc2ccccc21` [Carbamazepine, 5H-dibenz-[b,f]azepine-5-carboxamide], the water solubility entry was “poorly water-soluble”. The therapeutic range in data set [1] was 4 to 12 µg/mL. In addition, the “conversion to carbamazepine dihydrate complete” value in data set [2] is 95%.
